Source: patent US4889801A (Daiichi Pure Chemicals Co., Ltd., priority 1986, dated 1989)

Key:
[1] = test system: 3α-hydroxysteroid oxidase; assay: Relative activities of the 3α-hydroxysteroid oxidase for various substrates; assay type: biochemical, Pseudomonas testosterone ATCC 11996; conditions: substrate of the oxidase; R.A. of cholic acid being 100
Method: Thereafter, the microorganism was cultured at the same temperature for 10-24 hours. After completion of the culture, the resultant culture broth was centrifuged to separate and collect cells. The thus-collected cells were suspended at 5° C. in 5 volumes of a 0.02 M phosphate buffer of pH 7.0, which contained 1% (w/v) of "Triton X-100" (BDH Ltd.), to a total volume of 1 l. By a cell disrupter, DINO-MILL (trade mark; manufactured by Willy A. Bachofen Maschinenfabrik AG), the cells were disrupted to release the enzyme. […] The extract was then added with 430 g of ammonium sulfate to a final concentration of 65% saturation, the precipitated fraction was collected by centrifugation. The precipitate was dissolved in a 0.lM phosphate buffer (pH 7) containing 0.1% of "Triton X-100" and the resultant mixture was dialyzed for 24 hours against the same buffer in order to remove any remaining ammonium sulfate.
An azide was added as a preservative to the enzyme solution.

[2] = test system: 3α-hydroxysteroid oxidase; assay: Enzymatic characteristics: substrate specificity and Km value; assay type: biochemical, Pseudomonas testosterone ATCC 11996

SMILES: C[C@]12CCC(=O)C[C@@H]1CC[C@@H]1[C@@H]2CC[C@]2(C)C(=O)CC[C@@H]12 [5α-Androstan-3,17-dione]
- R.A. (relative activity) [1]: 0%

SMILES: C[C@]12CC[C@@H](O)C[C@@H]1CC[C@@H]1[C@@H]2CC[C@]2(C)C(=O)CC[C@@H]12 [5α-Androstan-3α-ol-17-one]
- R.A. (relative activity) [1]: 0%

SMILES: C[C@]12CCC(=O)C[C@H]1CC[C@@H]1[C@@H]2CC[C@]2(C)C(=O)CC[C@@H]12 [5β-Androstan-3,17-dione]
- R.A. (relative activity) [1]: 18%

SMILES: C[C@@]12CCC[C@H]1[C@@H]1CC[C@@H]3C[C@H](O)CC[C@]3(C)[C@H]1CC2 [5β-androstan-3α-ol]
- Substrate specificity (oxidase acts on substrate or not) [2]: acts on

SMILES: C[C@H](CCC(=O)O)[C@H]1CC[C@H]2[C@@H]3[C@H](O)C[C@@H]4C[C@H](O)CC[C@]4(C)[C@H]3CC[C@]12C [Chenodeoxycholic acid]
- R.A. (relative activity) [1]: 89%

SMILES: CC(C)CCC[C@@H](C)[C@H]1CC[C@H]2[C@@H]3CC=C4C[C@@H](O)CC[C@]4(C)[C@H]3CC[C@]12C [Cholesterol]
- R.A. (relative activity) [1]: 0%

SMILES: C[C@H](CCC(=O)O)[C@H]1CC[C@H]2[C@@H]3[C@H](O)C[C@@H]4C[C@H](O)CC[C@]4(C)[C@H]3C[C@H](O)[C@]12C [Cholic acid]
- R.A. (relative activity) [1]: 100%

SMILES: C[C@H](CCC(=O)O)[C@H]1CC[C@H]2[C@@H]3CC[C@@H]4C[C@H](O)CC[C@]4(C)[C@H]3CC[C@]12C [Cithocholic acid]
- R.A. (relative activity) [1]: 57%

SMILES: C[C@H](CCC(=O)O)[C@H]1CC[C@H]2[C@@H]3CC[C@@H]4C[C@H](O)CC[C@]4(C)[C@H]3C[C@H](O)[C@]12C [Deoxycholic acid]
- R.A. (relative activity) [1]: 86%

SMILES: C[C@]12CC[C@@H](O)C[C@H]1CC[C@@H]1[C@@H]2CC[C@]2(C)C(=O)CC[C@@H]12 [Ethiocholan-3α-ol-17-one]
- R.A. (relative activity) [1]: 140%
- Km ([2]; against ethiocholan-3α-ol-17-one): 800 µM

SMILES: C[C@H](CCC(=O)NCC(=O)O)[C@H]1CC[C@H]2[C@@H]3[C@H](O)C[C@@H]4C[C@H](O)CC[C@]4(C)[C@H]3C[C@H](O)[C@]12C [Glycocholic acid]
- R.A. (relative activity) [1]: 95%

SMILES: C[C@]12CC[C@H]3[C@@H](CCC4=CC(=O)CC[C@@]43C)[C@@H]1CC[C@@H]2O [Testosterone]
- R.A. (relative activity) [1]: 0%
